Data: paper PMC9134009 (RSC Advances, 2021)

Tested on: human gastric cancer cell line SGC7901
Assay: CCK-8 in vitro cytotoxicity test, SGC7901
Assay type: cell-based
Settings: read-out: IC50 (nM) SGC7901; CCK-8, 72 h exposure, n = 3

## N.N.[Cl][Pt][Cl] [cisplatin]
  IC50: 927 ± 77.6 nM
